Measured values: patent publication US4156011A, “Sulphur- and oxygen-containing diaryl compounds” (priority 1974, dated 1979)
Structures can show the parent of a compound that is named as a salt. Where two headings read alike, the source gives them in different places.

Key:
[1] = tested on: blood platelet aggregation; experiment: Anti-aggregation action in rats (graded / in words); assay type: in vivo; set-up: key to Anti-aggregation action: -: zero activity; +: significant activity; ++: intense activity; +++: very intense activity; conditions: for anti-aggregation activity (in words): results of Table IV
[2] = Hypo-lipidaemic and hypo-cholesterolaemic action of other products (Table V); assay type: in vivo, rats; conditions: Rattus norvegicus, 96 h; for change in vivo at 100 mg/kg: oral 100 mg/kg for 4 days; for change in vivo at 200 mg/kg: oral 200 mg/kg for 4 days
Source text: The results of the anti-aggregation test and of the hypo-[…] action and hypo-cholesterolaemic action tests of other products of the invention have been […] Table V which follows, the code used being the following (for each dose shown): […]

Clinical tests in man = assay type: in vivo
Procedure: The clinical tests have made it possible to confirm the pharmacological tests. Thus, in man, CRL 40,293 (Example 23) in the form of gelatine-coated pills containing 400 mg of active ingredient administered at the rate of 2 such pills twice daily has given good results in the treatment of circulatory complaints and especially of lipid disturbances.
CRL 40,386 (Example 8) has been used in man for the treatment of hyperlipidaemia in the form of gelatine-coated pills each containing 300 mg of active ingredient at the rate of 2 to 6 such pills per day.

[3] = Solubility of the isolated product; conditions: water
[4] = Reduction of lipids and cholesterol in rats treated orally; assay type: in vivo; conditions: for inhibition in vivo at 50 mg/kg / inhibition in vivo at 10 mg/kg / inhibition in vivo at 20 mg/kg: Rattus norvegicus; for inhibition in vivo at 50 mg/kg: 96 h, oral 50 mg/kg; for inhibition in vivo at 10 mg/kg / inhibition in vivo at 20 mg/kg: 72 h, 3 days; for inhibition in vivo at 10 mg/kg: oral 10 mg/kg; for inhibition in vivo at 20 mg/kg: oral 20 mg/kg
[5] = tested on: platelets (aggregation induced by collagen); experiment: Anti-aggregation action, platelet aggregation induced by collagen; assay type: in vivo, male Wistar rats; conditions: 4 days; for change in aggregation, collagen, latency period / change in aggregation, collagen, transmission / change in aggregation, collagen, speed: oral 100 mg/kg, collagen/acetic acid diluted 1/10
Procedure: (a) by collagen: the inhibition of aggregation (which corresponds to the % transmission), the latency period and the speed; and
(§1) In Table IV which follows have been shown the results relating to the anti-aggregation action of some products on the blood of male Wistar rats, the aggregating agents used being collagen/acetic acid diluted 1/10, and ADP at 1 μM.

[6] = tested on: platelets (aggregation induced by ADP); experiment: Anti-aggregation action, platelet aggregation induced by ADP; assay type: in vivo, male Wistar rats; conditions: oral 100 mg/kg, 4 days; for inhibition at 100 mg/kg: Rattus norvegicus, Platelet, 96 h, read-out: inhibition of transmission (ADP test); for change in aggregation, ADP transmission: ADP at 1 μM
Procedure: (b) by ADP: the inhibition of aggregation (that is to say the % transmission).
as §1

[7] = Reduction of lipids and cholesterol in rats treated orally; assay type: in vivo; conditions: Rattus norvegicus
Procedure: Some of the other results of the pharmacological tests which were carried out on rats are summarised below.
Rats given a normal diet are treated orally at a daily dose of 50 mg/kg for 3 and 5 days. A reduction of about 20% in the concentration of cholesterol and lipids in the plasma is observed.

[8] = Hypo-lipidaemic and hypo-cholesterolaemic action in rats on hyper-lipid diet; assay type: in vivo, Wistar rats; conditions: Rattus norvegicus, 0.1 g/kg in rats
Source text: A. a batch of rats receiving a normal diet (percentage inhibition=100%);
B. a batch of rats receiving a hyper-lipid diet (percentage inhibition=0%);
C. a batch of rats receiving the hyper-lipid diet B with a daily dose, of 0.1 g/kg, of a reference product having a lipidaemia-normalising action, namely Lipavlon [ethyl 2-(p-chlorophenoxy)-2-methyl-propionate];
D. a batch of rats receiving the hyper-lipid diet B with a daily dose, of 0.1 g/kg, of another product having a lipidaemia-normalising action, namely LL 1558 [1,10-bis-(2-hydroxyethyl-thio)-decane]; and
E. a batch of rats receiving the hyper-lipid diet B with a daily dose of 10 mg/kg and 25 mg/kg, where necessary, higher doses.
In Table III which follows have been shown the results relating to CRL 40,201 (the product of Example 17) and CRL 40,202 (the product of Example 18) in respect of the hypo-lipidaemic action and hypo-cholesterolaemic action.

[9] = read-out: Total lipids (change)
[10] = tablet of 250 to 500 mg, to prevent cardiovascular accidents, especially coronary insufficiency
[11] = read-out: reduction in the cholesterol
[12] = read-out: reduction in the lipids

## Cl.NCCOc1ccc(Oc2ccc(Cl)cc2)cc1 [CRL 40,317, 2-[4-(4-Chlorophenoxy)-phenoxy]-ethylamine hydrochloride]
[1]; oral 100 mg/kg for 4 days
  Anti-aggregation action: +
[2]; [9]
  change in vivo at 100 mg/kg: -37%
Clinical tests in man; [10]
  tolerance in man: well tolerated
[3]
  solubility in water (in words): soluble in water

## CC(COC(=O)COc1ccc(Sc2ccc(Cl)cc2)cc1)SCCCCCCCCCCSC(C)COC(=O)COc1ccc(Sc2ccc(Cl)cc2)cc1 (racemic) [CRL 40,389, (±)-2,15-Dimethyl-3,14-dithia-1,16-hexadecyl di-[p-(p-chlorophenylthio)-phenoxy-acetate]]
Clinical tests in man; capsules or gelatine-coated pills of 500 mg, 2 to 4 per day
  tolerance in man: well tolerated
Clinical tests in man; man, capsules or gelatine-coated pills of 500 mg, 2 to 4 per day
  treatment of hyperlipidaemia: efficient
[4]; 4 days, read-out: reduction in the cholesterol
  inhibition in vivo at 50 mg/kg: 35%
[4]; 4 days, read-out: reduction in the lipids
  inhibition in vivo at 50 mg/kg: 35%

## CC(COC(=O)C(C)Oc1ccc(Sc2ccc(Cl)cc2)cc1)SCCCCCCCCCCSC(C)COC(=O)C(C)Oc1ccc(Sc2ccc(Cl)cc2)cc1 (racemic) [CRL 40,391, (±)-2,15-Dimethyl-3,14-dithia-1,16-hexadecyl di-(±)-{2-[p-(p-chlorophenylthio)-phenoxy]-propionate}]
[5]; 100 mg/kg, unit not given
  latency time (collagen test): +40
  speed (collagen test): -32
[6]
  inhibition at 100 mg/kg: 19%
[7]; 72 h, oral 50 mg/kg, 3 days, read-out: reduction in the cholesterol
  inhibition in vivo at 50 mg/kg: 42%
[7]; 72 h, oral 50 mg/kg, 3 days, read-out: reduction in the lipids
  inhibition in vivo at 50 mg/kg: 29%
[4]; [11]
  inhibition in vivo at 10 mg/kg: 32%
  inhibition in vivo at 20 mg/kg: 43%
[4]; [12]
  inhibition in vivo at 10 mg/kg: 17%
  inhibition in vivo at 20 mg/kg: 21%

## O=C(CSc1ccc(Oc2ccc(Cl)cc2)cc1)NCCO [CRL 40,272, N-Hydroxyethyl-4-(4-chlorophenoxy)-phenylthioacetamide]
[5]
  change in aggregation, collagen, latency period: +16%
  change in aggregation, collagen, transmission: 0%
[6]
  change in aggregation, ADP transmission: -20%

## Cl.OCCNCCOc1ccc(Oc2ccc(Cl)cc2)cc1 [CRL 40,295, N-Hydroxyethyl-2-[4-(4-chlorophenoxy)-phenoxy]-1-ethylamine hydrochloride]
[1]; oral 100 mg/kg for 4 days
  Anti-aggregation action: +++
[1]; oral 200 mg/kg for 4 days
  Anti-aggregation action: +++
[2]; read-out: Cholesterol (change)
  change in vivo at 100 mg/kg: -32%
  change in vivo at 200 mg/kg: -37%
[2]; [9]
  change in vivo at 100 mg/kg: -19%
  change in vivo at 200 mg/kg: -28%
Clinical tests in man; [10]
  tolerance in man: well tolerated
[3]
  solubility: 200 mg/mL

## OCCNCCSc1ccc(Oc2ccc(Cl)cc2)cc1 [CRL 40,274, N-Hydroxyethyl-2-[4-(4-chlorophenoxy)phenylthio]-ethylamine]
[5]
  change in aggregation, collagen, speed: 0%
[6]
  change in aggregation, ADP transmission: -20%
[3]
  solubility in water (in words): insoluble in water

## CC(C)(CO)Sc1ccc(Oc2ccc(Cl)cc2)cc1 [CRL 40,276, 4-(4-Chlorophenoxy)-phenylthio-isobutanol]
[5]
  change in aggregation, collagen, latency period: +25%
  change in aggregation, collagen, speed: -13%
  change in aggregation, collagen, transmission: -31%
[6]
  change in aggregation, ADP transmission: -20%

## O=C(O)CSc1ccc(Oc2ccc(Cl)cc2)cc1 [CRL 40,271, 4-(4-Chlorophenoxy)-phenylthioacetic acid]
[8]; read-out: cholesterol inhibition
  inhibition at 100 mg/kg: 54%
[8]; read-out: total lipids inhibition
  inhibition at 100 mg/kg: 35%
[5]
  change in aggregation, collagen, latency period: +15%
  change in aggregation, collagen, speed: -60%
  change in aggregation, collagen, transmission: -25%
[6]
  change in aggregation, ADP transmission: -28%
[1]
  anti-aggregation activity (in words): the most interesting amongst them
Clinical tests in man; gelatine-coated pill of 200 to 400 mg, 1 to 2 per day
  tolerance in man: well tolerated
Clinical tests in man; man, gelatine-coated pill of 200 to 400 mg, 1 to 2 per day
  treatment of circulatory complaints due to hyperlipidaemias: efficient

## O=C(CSc1ccc(Sc2ccc(Cl)cc2)cc1)OCCSCCCCCCCCCCSCCOC(=O)CSc1ccc(Sc2ccc(Cl)cc2)cc1 [CRL 40,394, 3,14-Dithia-1,16-hexadecyl di-[p-(p-chlorophenylthio)-phenylthio-acetate]]
[7]; po, 120 h, 50 mg/kg, 5 days, read-out: reduction in the cholesterol
  inhibition in vivo at 50 mg/kg: 16%
[7]; po, 120 h, 50 mg/kg, 5 days, read-out: reduction in the lipids
  inhibition in vivo at 50 mg/kg: 33%

## CC(COC(=O)C(C)(C)Sc1ccc(Oc2ccc(Cl)cc2)cc1)SCCCCCCCCCCSC(C)COC(=O)C(C)(C)Sc1ccc(Oc2ccc(Cl)cc2)cc1 (racemic) [CRL 40,414, (±)-2,15-Dimethyl-3,14-dithia-1,16-hexadecyl di-{2-[p-(p-chlorophenoxy)-phenylthio]-2-methylpropionate}]
Clinical tests in man; man, gelatine-coated pills of 300 mg, 3 per day
  treatment of hyperlipidaemia: used with success
[4]; oral 100 mg/kg, 4 days
  reduction in the (total) lipids: 12%

## CC(C)(CNCCO)Oc1ccc(Sc2ccc(Cl)cc2)cc1 [CRL 40,238, N-Hydroxyethyl-4-(4-chlorophenylthio)-phenoxy-isobutylamine hydrochloride]
[5]
  change in aggregation, collagen, latency period: +18%
  change in aggregation, collagen, speed: -52%
  change in aggregation, collagen, transmission: -47%
[6]
  change in aggregation, ADP transmission: -46%
[1]
  anti-aggregation activity (in words): the most interesting amongst them
[3]
  solubility in water (in words): insoluble in water

## CC(C)(Sc1ccc(Sc2ccc(Cl)cc2)cc1)C(=O)OCCSCCCCCCCCCCSCCOC(=O)C(C)(C)Sc1ccc(Sc2ccc(Cl)cc2)cc1 [CRL 40,402, 3,14-Dithia-1,16-hexadecyl di-{2-[p-(p-chlorophenylthio)-phenylthio]-2-methylpropionate}]
[6]
  inhibition at 100 mg/kg: 25%
[4]; [11]
  inhibition in vivo at 20 mg/kg: 14%
[4]; [12]
  inhibition in vivo at 20 mg/kg: 17%
[4]; oral 10, 20 and 50 mg/kg, 3 to 5 days
  cholesterol content and lipids content (in words): a reduction in the cholesterol content and lipids content is observed
